In brackets after ≈: the same amount, converted by molar mass. Where two headings read alike, the source gives them in different places.

In this assay the test system is trout head kidney tissue. Nature of the assay: Cortisol lowering activity in trout head kidney slice model (ACTH-stimulated cortisol release). The note with it: for effect on cortisol production: 60 μg/ml, ACTH 1 U/ml; for EC50: Oncorhynchus mykiss; for concentration dependence of effect on cortisol production: ACTH 1 U/mL. In kind it is cell-based, rainbow trout (Oncorhynchus mykiss). How it is done:
Head kidney tissue was isolated using a modified method as described by Conde-Sieira et al. (2013). Fish were anaesthetized with benzocaine (30-35 mg/L), blood was removed from the caudal vein using a 3 mL heparinized syringe and the fish euthanized by spinal transection. The vasculature was perfused through the post-cardinal vein with 40 mL of modified Hanks' medium (92.56 mM NaCl, 3.63 mM KCl, 0.55 mM MgSO4, 0.4 mM KH2PO4, 0.23 Na2HPO4, 7.5 mM Hepes, 2.81 mM NaHCO3, 0.85 mM CaCl2, 0.03% (w/v) bovine albumin serum) containing EGTA (1 mM final) adjusted to pH 7.64. The entire head kidney was removed from the trout and transferred to a 15 mL chilled glass petri dish containing modified Hanks' medium (pH 7.15). The tissue was weighed then transferred to a 35 mL chilled glass petri dish containing […] modified Hanks' medium per gram of tissue supplemented with MEM amino acid solution (50×; 2 mL/100 mL medium; Sigma—M5550), MEM non-essential amino acid solution (100×; 1 mL/100 mL medium; Sigma˜M7145) and Antibiotic-Antimycotic (100×; 1 mL/100 mL medium; Life Technologies˜15240). The tissue was chopped finely with a razor blade then separated further using a rubber policeman. The tissue was incubated at 13° C. with gentle agitation for 1.5 h to ensure basal levels of cortisol release. Optimal incubation times were determined in previous experiments (Conde-Sieira et al., 2013).
Following the 1.5 h pre-incubation, tissue was placed in 48-well culture plates (approximately 25 mg tissue pre well) along with a final volume of 250 μL modified Hanks' medium. There were two wells for each compound treatment; one control (−ACTH) and one stimulated (+ACTH) that were conducted simultaneously. Tissues were incubated with compounds of the disclosure (60 μg/mL) initiated at the same time as determined in previous experiments (Mullally et al., 2012) for 60 min at 13° C. with gentle agitation and stimulated with 1 U/mL ACTH (Sigma-Aldrich). The compounds were dissolved in ethanol and DMSO (final concentration of DMSO: 0.3% v/v, ethanol 1% v/v) by vortexing for 1 min and sonication for 30 s if the compound was not fully dissolved (determined by visual inspection). After incubation, tissue and supernatant were collected and transferred to pre-weighed 1.5 mL conical plastic tubes and centrifuged (14 000 RCF, 10 min). The supernatant was collected and transferred into a new 1.5 mL conical plastic tube and flash frozen in liquid nitrogen for subsequent cortisol assay. The mass of tissue for each sample was determined by weighing the remaining tissue in the pre-weighed tubes. Four control wells were prepared for each preparation: modified Hanks' medium, modified Hanks' medium plus ACTH (1 U/mL), DMSO/ethanol blank (0.3% v/v DMSO, 1% v/v ethanol) and DMSO/ethanol blank plus ACTH (1 U/mL).
Cortisol concentrations were assessed using a ^125I RIA kit (MP Biomedicals, Irvine, Calif., USA) as per the manufacturer's instructions and read using a Packard® Cobra™ Auto-Gamma Counter. Counts were normalized to tissue weights in each experimental well.
Data are presented as % change in ACTH-stimulated cortisol release relative to control preparation (modified Hanks' medium stimulated with ACTH) using GraphPad Prism software (GraphPad Software, Inc., La Jolla, Calif.). […] GraphPad Prism software (GraphPad Software, Inc., La Jolla, Calif.) was used to graph and calculate EC50 values by fitting a sigmoidal curve to the dose response data as well as linear regressions between Log P of compounds of the disclosure vs log cortisol responses.

Where [1] appears, read: read-out: calculated EC50, approximate (inhibition of cortisol production).
Where [2] appears, read: GraphPad Prism fit, n=3-7, FIG. 3, read-out: EC50, four parameter sigmoidal curve (ACTH-stimulated cortisol release).

Broadly, the EC50 is the concentration that produces a half-maximal response. Consider `COC(=O)[C@]12CC[C@@H](C(C)O)C1C1CCC3[C@@]4(C)CC[C@H](O)C(C)(C)C4CC[C@@]3(C)[C@]1(C)CC2` (single isomer, unassigned) [Compound 1546], for which the “effect on cortisol production” value was “lowered cortisol production”. Also, the EC50 under setting [1] was roughly 9 µg/mL (≈ 19 µM). In addition, the EC50 under setting [2] was found to be 9.5 µg/mL (≈ 20 µM).
As to `CC(=O)[C@@H]1CC[C@]2(C(=O)O)CC[C@]3(C)[C@H](CC[C@@H]4[C@@]5(C)CC[C@H](O)C(C)(C)[C@@H]5CC[C@]43C)[C@@H]12` [Compound 1516, Platanic Acid], the “effect on cortisol production” value is “lowered cortisol production”. Also, the EC50 under setting [1] is roughly 9 µg/mL (≈ 19.6 µM). Also, the EC50 under setting [2] stood at 9.4 µg/mL (≈ 20.5 µM). Further, for the setting “dose response”, the “concentration dependence of effect on cortisol production” value is listed as “inhibited cortisol production in a dose-dependent manner”.
On to `C=C(C)[C@@H]1CC[C@]2(C(=O)OC)CC[C@]3(C)C(CCC4[C@@]5(C)C[C@@H](O)C(=O)C(C)(C)C5CC[C@]43C)C12` (stereo partly drawn) [Compound 1521, Methyl 2α-hydroxy betulonate], for which the “effect on cortisol production” value was “lowered cortisol production”.
In the case of `C=C(C)[C@@H]1CC[C@]2(/C=C/C(=O)OCC)CC[C@]3(C)C(CCC4[C@@]5(C)CC[C@H](O)C(C)(C)C5CC[C@]43C)C12` (some centres unmarked) [Compound 1529, Vinylogous ethyl betulinate], the “effect on cortisol production” value is listed as “lowered cortisol production”. Moreover, the EC50 under setting [2] was determined as 116 µg/mL (≈ 227 µM).
For `COC(=O)[C@]12CC[C@@H](C)[C@H](C)[C@H]1C1=CCC3[C@@]4(C)C[C@@H](O)C(=O)C(C)(C)C4CC[C@@]3(C)[C@]1(C)CC2` (stereo partly drawn) [Compound 1537, Methyl 2α-hydroxy-3-oxo-urs-12-en-28-oate], the “effect on cortisol production” value is “lowered cortisol production”. For the same compound, the EC50 (ACTH-stimulated cortisol release, dose response, FIG. 3, read-out: calculated EC50, approximate (inhibition of cortisol production)) was roughly 28 µg/mL (≈ 57.8 µM). In addition, the EC50 under setting [2] is 28.2 µg/mL (≈ 58.2 µM). Besides, the “concentration dependence of effect on cortisol production” value (dose response) is reported as “inhibited cortisol production in a dose-dependent manner”.

Source of the values: patent publication US20150272922A1, “Compounds for Reducing Glucocorticoids, and Methods of Treatment Thereof” (BIONICHE LIFE SCIENCES INC., priority 2012, published 2015).
